The EC50 is the concentration that produces a half-maximal response. In general, melting point refers to the temperature, or range, at which the solid turns liquid.

Data set [1] has as its system HIV-1 vectors that carry WT IN. The data set is described as follows: Single-round HIV-1 replication antiviral assay, wild-type IN. The format is cell-based. As to conditions: for EC50: 48 h; for Ratio of the antiviral potencies after and before hydrogenation (WT): EC50 of saturated 7 over EC50 of unsaturated 6, WT IN. The method, then:
The bicyclic metal chelating carbamoyl pyridone moiety is common to second-generation tricyclic INSTIs (3, 4, and 5, Figure 1). Analogs of the current study are simplified analogs that lack a third ring. […] The halogen substitution pattern of the benzylamide moiety can affect inhibitory potencies of INSTIs. We determined the antiviral potencies of our compounds in single round HIV-1 replication assays using viral constructs with wild-type IN [31]. Cytotoxicities were determined as previously described. […] In general, the potencies of bicyclic analogs 6 having an unsaturated bond at the C4 position were insensitive to differences in N-methyl substituents. […] Analogs 6g and 6h represent simplified analogs of DTG (3) and CAB (5), respectively, in which the third ring (C-ring) is opened and having doble bond in B-ring, but lacking α-methyl stereochemistry.
Human embryonic kidney cell culture cell line 293 was acquired from the American Type Culture Collection (ATCC). The human osteosarcoma cell line, HOS, was obtained from Dr. Richard Schwartz (Michigan State University, East Lansing, MI, USA) and grown in Dulbecco’s modified Eagle’s medium (Invitrogen, Carlsbad, CA, USA) supplemented with 5% (v/v) fetal bovine serum, 5% newborn calf serum, and penicillin (50 units/mL) plus streptomycin (50 µg/mL; Quality Biological, Gaithersburg, MD, USA). The transfection vector, pNLNgoMIVR-ΔLUC was made from pNLNgoMIVR-ΔEnv.HSA by removing the HSA reporter gene and replacing it with a luciferase reporter gene between the NotI and XhoI restriction sites. To produce the new IN mutant S230N used in this study, the IN open reading frame was removed from pNLNgoMIVR-ΔENV.LUC by digestion with KpnI and SalI, and the resulting fragment was inserted between the KpnI and SalI sites of pBluescript KS+. Using that construct as the wild-type template, we prepared the following HIV-1 IN mutant S230N using the QuikChange II XL site-directed mutagenesis kit (Agilent Technologies, Santa Clara, CA, USA) protocol. The following sense oligonucleotides were used with matching cognate antisense oligonucleotides (not shown) (Integrated DNA Technologies, Coralville, IA, USA) in the mutagenesis: S230N 5′-[…]-3′. The DNA sequence of the IN mutant S230N construct was verified independently by DNA sequence determination. The mutated IN coding sequences from pBluescript KS+ were then subcloned into pNLNgoMIVR-ΔEnv.LUC (between the KpnI and SalI sites) to produce mutant HIV-1 constructs, which were also checked by DNA sequencing. […]. On the day prior to transfection, 293 cells were plated on 100 mm diameter dishes at a density of 1.5 × 10^6 cells per plate. Next, 293 cells were transfected with 16 µg of pNLNgoMIVR^-ΔLUC and 4 µg of pHCMV-g (obtained from Dr. Jane Burns, University of California, San Diego) using the calcium phosphate method. At approximately 6 h after the calcium phosphate precipitate was added, 293 cells were washed twice with phosphate-buffered saline (PBS) and incubated with fresh media for 48 h. The virus-containing supernatants were then harvested, clarified by low-speed centrifugation, filtrated, and diluted for preparation in antiviral infection assays. On the day prior to the screen, HOS cells were seeded in a 96-well luminescence cell culture plate at a density of 4000 cells in 100 µL per well. On the day of the screen for cellular cytotoxicity determination, cells were treated with compounds from a concentration range of 250 µM to 0.05 µM and then incubated at 37 °C for 48 h. On the day of the screen for antiviral activity infection assays, cells were treated with compounds from a concentration range of 5 µM to 0.0001 µM using 11 serial dilutions and then incubated at 37 °C for 3 h. After compound incorporation and activation in the cell, 100 µL of virus-stock (WT or mutant) diluted to achieve a luciferase signal between 0.2 and 1.5 Relative Luciferase Units (RLUs) was added to each well and further incubated at 37 °C for 48 h. […]

Another data set can be described thus: in vitro. As to conditions: human, HOS cells. The format is cell-based. How it is done: Human embryonic kidney cell culture cell line 293 was acquired from the American Type Culture Collection (ATCC). The human osteosarcoma cell line, HOS, was obtained from Dr. Richard Schwartz (Michigan State University, East Lansing, MI, USA) and grown in Dulbecco’s modified Eagle’s medium (Invitrogen, Carlsbad, CA, USA) supplemented with 5% (v/v) fetal bovine serum, 5% newborn calf serum, and penicillin (50 units/mL) plus streptomycin (50 µg/mL; Quality Biological, Gaithersburg, MD, USA). The transfection vector, pNLNgoMIVR-ΔLUC was made from pNLNgoMIVR-ΔEnv.HSA by removing the HSA reporter gene and replacing it with a luciferase reporter gene between the NotI and XhoI restriction sites. To produce the new IN mutant S230N used in this study, the IN open reading frame was removed from pNLNgoMIVR-ΔENV.LUC by digestion with KpnI and SalI, and the resulting fragment was inserted between the KpnI and SalI sites of pBluescript KS+. Using that construct as the wild-type template, we prepared the following HIV-1 IN mutant S230N using the QuikChange II XL site-directed mutagenesis kit (Agilent Technologies, Santa Clara, CA, USA) protocol. The following sense oligonucleotides were used with matching cognate antisense oligonucleotides (not shown) (Integrated DNA Technologies, Coralville, IA, USA) in the mutagenesis: S230N 5′-[…]-3′. The DNA sequence of the IN mutant S230N construct was verified independently by DNA sequence determination. The mutated IN coding sequences from pBluescript KS+ were then subcloned into pNLNgoMIVR-ΔEnv.LUC (between the KpnI and SalI sites) to produce mutant HIV-1 constructs, which were also checked by DNA sequencing. […]. On the day prior to transfection, 293 cells were plated on 100 mm diameter dishes at a density of 1.5 × 10^6 cells per plate. Next, 293 cells were transfected with 16 µg of pNLNgoMIVR^-ΔLUC and 4 µg of pHCMV-g (obtained from Dr. Jane Burns, University of California, San Diego) using the calcium phosphate method. At approximately 6 h after the calcium phosphate precipitate was added, 293 cells were washed twice with phosphate-buffered saline (PBS) and incubated with fresh media for 48 h. The virus-containing supernatants were then harvested, clarified by low-speed centrifugation, filtrated, and diluted for preparation in antiviral infection assays. On the day prior to the screen, HOS cells were seeded in a 96-well luminescence cell culture plate at a density of 4000 cells in 100 µL per well. On the day of the screen for cellular cytotoxicity determination, cells were treated with compounds from a concentration range of 250 µM to 0.05 µM and then incubated at 37 °C for 48 h. On the day of the screen for antiviral activity infection assays, cells were treated with compounds from a concentration range of 5 µM to 0.0001 µM using 11 serial dilutions and then incubated at 37 °C for 3 h. After compound incorporation and activation in the cell, 100 µL of virus-stock (WT or mutant) diluted to achieve a luciferase signal between 0.2 and 1.5 Relative Luciferase Units (RLUs) was added to each well and further incubated at 37 °C for 48 h. Cellular cytotoxicity was measured by using the ATP Lite Luminescence detection system and monitored by adding 50 µL of cell lysis buffer from the Luminescence ATP detection assay to each well followed by mixing at 700 rpm at room temperature for 5 min using a compact thermomixer. After addition of 50 µL of reconstituted Luminescence ATP detection assay reagent to all wells except for the negative control/background wells, the plates were mixed at 700 rpm at room temperature for 5 min using a compact thermomixer, incubated at room temperature for 20 min to allow time for signal development, and finally, cytotoxicity was determined using the microplate reader. Infectivity was measured by using the Steady-lite plus luminescence reporter gene assay system (PerkinElmer, Waltham, MA, USA). […]

Setting [2] is: Human immunodeficiency virus 1, HOS, read-out: EC50, antiviral potency, WT IN, VSV-g-pseudotyped HIV-1 luciferase vector with WT IN, HOS cells, 48 h.
Where [3] appears, read: 48 h, read-out: CC50, cytotoxic concentration resulting in 50% reduction in the level of ATP.

SMILES strings stand for the structures. Like-named read-outs stand apart in the source and are kept apart here.

As to `COCCCCCCn1ccn2cc(C(=O)NCc3ccc(F)cc3F)c(=O)c(O)c2c1=O` [Compound 6f, N-(2,4-Difluorobenzyl)-9-hydroxy-2-(6-methoxyhexyl)-1,8-dioxo-1,8-dihydro-2H-pyrido [1,2-a]pyrazine-7-carboxamide], the half-maximal effective concentration (EC50) in data set [1] (setting [2]) is 4.8 ± 0.2 nM. For the same molecule, the CC50 in “in vitro” (setting [3]) is above 250000 nM.
`CC(C)CC(C)n1ccn2cc(C(=O)NCc3ccc(F)cc3F)c(=O)c(O)c2c1=O` (stereo not drawn) [Compound 6i, N-(2,4-Difluorobenzyl)-9-hydroxy-2-(4-methylpentan-2-yl)-1,8-dioxo-1,8-dihydro-2H-pyrido [1,2-a]pyrazine-7-carboxamide] had a melting point of 199 to 203 °C. Further, the EC50 in data set [1] (setting [2]) turned out to be 4.2 ± 1 nM. Moreover, in “in vitro” (setting [3]), the CC50 is above 250000 nM.
`COCCN1CCn2cc(C(=O)NCc3ccc(F)cc3F)c(=O)c(O)c2C1=O` [Compound 7h, N-(2,4-Difluorobenzyl)-9-hydroxy-2-(2-methoxyethyl)-1,8-dioxo-1,3,4,8-tetrahydro-2H-pyrido [1,2-a]pyrazine-7-carboxamide] gave a melting point of 207 to 210 °C. The “Ratio of the antiviral potencies after and before hydrogenation (WT)” value (“Ratio of the antiviral potencies” for short) in data set [1] was 2.1. Besides, in data set [1] (setting [2]), the EC50 was found to be 3.9 ± 0.5 nM.
`O=C(NCc1c(F)cc(F)cc1F)c1cn2c(c(O)c1=O)C(=O)N1[C@H]3CC[C@H](C3)O[C@@H]1C2` [BIC, Bictegravir, reference compound]: the EC50 in data set [1] (setting [2]) was around 2 nM.
Regarding `CC(C)CC(C)N1CCn2cc(C(=O)NCc3ccc(F)cc3F)c(=O)c(O)c2C1=O` (stereo not drawn) [Compound 7i, N-(2,4-Difluorobenzyl)-9-hydroxy-2-(4-methylpentan-2-yl)-1,8-dioxo-1,3,4,8-tetrahydro-2H-pyrido [1,2-a]pyrazine-7-carboxamide], the melting point was 190 to 192 °C. The “Ratio of the antiviral potencies” value in data set [1] amounted to 1.4. Also, the EC50 in data set [1] (setting [2]) came out at 6 ± 1.2 nM. The CC50 in the data set “in vitro” (setting [3]) was above 250000 nM.
The molecule `Cn1ccn2cc(C(=O)NCc3ccc(F)cc3F)c(=O)c(O)c2c1=O` [Compound 6a, N-(2,4-Difluorobenzyl)-9-hydroxy-2-methyl-1,8-dioxo-1,8-dihydro-2H-pyrido [1,2-a]pyrazine-7-carboxamide] came in with a melting point of 275 to 280 °C. Moreover, the EC50 in data set [1] (setting [2]) came to 2.7 ± 0.2 nM.
In the case of `COCCCN1CCn2cc(C(=O)NCc3ccc(F)cc3F)c(=O)c(O)c2C1=O` [Compound 7g, N-(2,4-Difluorobenzyl)-9-hydroxy-2-(3-methoxypropyl)-1,8-dioxo-1,3,4,8-tetrahydro-2H-pyrido [1,2-a]pyrazine-7-carboxamide], the melting point is 250 to 252 °C. In addition, the “Ratio of the antiviral potencies” value in data set [1] came to 2.0. The EC50 in data set [1] (setting [2]) stood at 4 ± 0.7 nM. Further, the CC50 in the data set “in vitro” (setting [3]) is above 250000 nM.
As for `COCCCn1ccn2cc(C(=O)NCc3ccc(F)cc3F)c(=O)c(O)c2c1=O` [Compound 6g, N-(2,4-Difluorobenzyl)-9-hydroxy-2-(3-methoxypropyl)-1,8-dioxo-1,8-dihydro-2H-pyrido [1,2-a]pyrazine-7-carboxamide], the EC50 in data set [1] (setting [2]) is around 2 nM. The CC50 in the data set “in vitro” (setting [3]) is above 250000 nM.
`COCCn1ccn2cc(C(=O)NCc3ccc(F)cc3F)c(=O)c(O)c2c1=O` [Compound 6h, N-(2,4-Difluorobenzyl)-9-hydroxy-2-(2-methoxyethyl)-1,8-dioxo-1,8-dihydro-2H-pyrido [1,2-a]pyrazine-7-carboxamide]: the EC50 was around 2 nM in data set [1] (setting [2]) and 1.9 ± 0.4 nM in data set [1] (read-out: EC50, antiviral potency, WT IN, VSV-g-pseudotyped HIV-1 luciferase vector with WT IN, HOS cells). Moreover, the CC50 in “in vitro” (setting [3]) was above 250000 nM.
Turning to `CC(C)n1ccn2cc(C(=O)NCc3ccc(F)cc3F)c(=O)c(O)c2c1=O` [Compound 6b, N-(2,4-Difluorobenzyl)-9-hydroxy-2-isopropyl-1,8-dioxo-1,8-dihydro-2H-pyrido [1,2-a]pyrazine-7-carboxamide], in data set [1] (setting [2]), the EC50 worked out at 3.8 ± 0.6 nM. Further, the CC50 in the data set “in vitro” (setting [3]) was above 250000 nM.
`C[C@H]1CO[C@@H]2Cn3cc(C(=O)NCc4ccc(F)cc4F)c(=O)c(O)c3C(=O)N12` [CAB, Cabotegravir, reference compound]: in data set [1] (setting [2]), the EC50 is around 2 nM.
As for `CC(C)N1CCn2cc(C(=O)NCc3ccc(F)cc3F)c(=O)c(O)c2C1=O` [Compound 7b, N-(2,4-Difluorobenzyl)-9-hydroxy-2-isopropyl-1,8-dioxo-1,3,4,8-tetrahydro-2H-pyrido [1,2-a]pyrazine-7-carboxamide], the “Ratio of the antiviral potencies” value in data set [1] is given as 0.79. In addition, in data set [1] (setting [2]), the EC50 amounted to 3 ± 0.1 nM. Further, the CC50 in “in vitro” (running text of b13, read-out: CC50, cytotoxicity) was found to be 167000 nM.

The values are drawn from article PMC9919513, “A Practical Approach to Bicyclic Carbamoyl Pyridones with Application to the Synthesis of HIV-1 Integrase Strand Transfer Inhibitors” (Molecules, 2023).
